Data: patent US12570697B2, “Cyclic peptide useful in the treatment of cancer” (Syntherix Limited, priority 2019, dated 2026)
“Also recorded” adds a separate entry of the source.

Experiments:
NCI-H460 cells = assay: viability assay of CLIP cyclised peptides on NCI-H460 cells (Example 3, Table 2); type: cell-based, human; details: for % inhibition at 300 μM / IC50: 96 h; for IC50: values in brackets approximate; for cytotoxic activity against NCIH460 cells (in words): with and without Nanocin-PRO
Protocol: The following protocol was used: • 1) NCI-H460 cells were grown in Ham's F12 media supplemented with 10% FBS. • 2) Cells were harvested and seeded into 96-well plates at 500 cells per well. • 3) Peptides were diluted 1:2 from DMSO stock solutions to generate a 9-point dose range from a top concentration of 300 μM. Final DMSO concentration was constant at 1% (v/v). • 4) In line with the supplied Nanocin-PRO protocol, diluted peptides were incubated with Nanocin-PRO in media for 20 minutes prior to addition to cells. Nanocin-PRO was used at a final assay concentration of 0.2 μl per well. • 5) Cells were grown in the presence of peptide for 96 hours at 37° C., 5% CO2 in a humidified atmosphere. • 6) After 96 h, Alamar blue 10% (v/v) was added, incubated for a further 4 h and fluorescent product detected using a BMG FLUOstar plate reader. • 7) Media only background readings were subtracted before data was analysed using a 4-parameter logistic equation in GraphPad Prism.
Viability assays of the CLIP cyclised peptides were performed to examine the effect of four HILRa clipped peptides on the viability of NCIH460 cells (up to three isomers for each of the peptides). […] Results for HILRa 16A, 16B, 16C and HILRa 17A, 17B and 17C are depicted in FIG. 2.
Assays were performed in the presence and absence of the peptide transfection reagent Nanocin-PRO.

[1] = tested on: human non-small cell lung cancer cells (NCIH-460); assay: killing of NCIH-460 cells by CLIPS-cyclised peptides of different warhead length (Table 1); type: cell-based
Protocol: The inventor undertook testing of the effect of various peptides which were cyclised using CLIPS technology on the killing of human non-small cell lung cancer cells (NCIH-460) in vitro. For each of the peptides, between two and four isomer fractions were received, giving a total of 12 peptide entities tested.
The following warhead lengths, obtained by adding flanking sarcosine residues, were tested: […]

Molecule	% inhibition at 300 μM (NCI-H460 cells; 0.2 μl Nanocin-PRO per well) [%]	% inhibition at 300 μM (NCI-H460 cells; No Nanocin-PRO) [%]	% inhibition at 1 mM ([1]; 0.2 μl Nanocin-PRO per well) [%]	% inhibition at 1 mM ([1]; No Nanocin-PRO) [%]	other results
COc1ccc2c(C[C@@H]3NC(=O)[C@@H](NC(C)=O)CSCc4cccc(c4)CSC[C@@H](C(N)=O)NC(=O)CC(c4ccc5ccccc5c4)NC(=O)[C@H](CCCNC(=N)N)NC(=O)C4N(CCC4(C)C)C(=O)CN(C)C(=O)[C@H](CCCNC(=N)N)NC3=O)cc(=O)oc2c1 (single isomer, unassigned) [HILRa CL-15-A, Ac-C[Dac]R[Sar][dmPro]R[Nap]C-NH2]	84.5	22.7			
COc1ccc2c(C[C@@H]3NC(=O)[C@@H](NC(C)=O)CSCc4cccc(c4)CSC[C@@H](C(N)=O)NC(=O)CC(c4ccc5ccccc5c4)NC(=O)[C@H](CCCNC(=N)N)NC(=O)C4N(CCC4(C)C)C(=O)CN(C)C(=O)[C@H](CCCNC(=N)N)NC3=O)cc(=O)oc2c1 (single isomer, unassigned) [HILRa CL-15-B, Ac-C[Dac]R[Sar][dmPro]R[Nap]C-NH2]	87.5	20.2			
COc1ccc2c(C[C@@H]3NC(=O)[C@@H](NC(C)=O)CSCc4cccc(c4)CSC[C@@H](C(N)=O)NC(=O)CC(c4ccc5ccccc5c4)NC(=O)[C@H](CCCNC(=N)N)NC(=O)C4N(CCC4(C)C)C(=O)CN(C)C(=O)[C@H](CCCNC(=N)N)NC3=O)cc(=O)oc2c1 (single isomer, unassigned) [HILRa CL-15-C, Ac-C[Dac]R[Sar][dmPro]R[Nap]C-NH2]	88.5	23.8			
COc1ccc2c(C[C@@H]3NC(=O)[C@@H](NC(C)=O)CSCc4cccc(c4)CSC[C@@H](C(N)=O)NC(=O)CC(c4ccc5ccccc5c4)NC(=O)[C@H](CCCNC(=N)N)NC(=O)C4N(CCC4(C)C)C(=O)CN(C)C(=O)[C@H](CCCNC(=N)N)NC3=O)cc(=O)oc2c1 (single isomer, unassigned) [HILRa CL-15-D, Ac-C[Dac]R[Sar][dmPro]R[Nap]C-NH2]	89.1	25.2			
COc1ccc2c(C[C@@H]3NC(=O)[C@@H](NC(C)=O)CSCc4cccc(c4)CSC[C@@H](C(N)=O)NC(=O)CC(c4ccc5ccccc5c4)NC(=O)[C@H](CCCNC(=N)N)NC(=O)CC(c4ccc5ccccc5c4)NC(=O)CN(C)C(=O)[C@H](CCCNC(=N)N)NC3=O)cc(=O)oc2c1 (single isomer, unassigned) [HILRa CL-17-A, Ac-C[Dac]R[Sar][Nap]R[Nap]C-NH2]	98.7	90.3			
COc1ccc2c(C[C@@H]3NC(=O)[C@@H](NC(C)=O)CSCc4cccc(c4)CSC[C@@H](C(N)=O)NC(=O)CC(c4ccc5ccccc5c4)NC(=O)[C@H](CCCNC(=N)N)NC(=O)CC(c4ccc5ccccc5c4)NC(=O)CN(C)C(=O)[C@H](CCCNC(=N)N)NC3=O)cc(=O)oc2c1 (single isomer, unassigned) [HILRa CL-17-B, Ac-C[Dac]R[Sar][Nap]R[Nap]C-NH2]	99.3	99.2			IC50 (NCI-H460 cells; 0.2 μl Nanocin-PRO per well): ~2.1 µM
COc1ccc2c(C[C@@H]3NC(=O)[C@@H](NC(C)=O)CSCc4cccc(c4)CSC[C@@H](C(N)=O)NC(=O)CC(c4ccc5ccccc5c4)NC(=O)[C@H](CCCNC(=N)N)NC(=O)CC(c4ccc5ccccc5c4)NC(=O)CN(C)C(=O)[C@H](CCCNC(=N)N)NC3=O)cc(=O)oc2c1 (single isomer, unassigned) [HILRa CL-17-C, Ac-C[Dac]R[Sar][Nap]R[Nap]C-NH2]	99.4	99.6			IC50 (NCI-H460 cells; 0.2 μl Nanocin-PRO per well): ~0.88 µM
Ac-CDacHcaSarNapHcaNapC-NH2 [HILRa CL-16-A]	0.0	9.9			cytotoxic activity against NCIH460 cells (in words) (NCI-H460 cells): completely removed the cell killing effect; also recorded: low detectable cancer cell-necrotic activity
Ac-CDacHcaSarNapHcaNapC-NH2 [HILRa CL-16-B]	0.0	14.1			cytotoxic activity against NCIH460 cells (in words) (NCI-H460 cells): completely removed the cell killing effect; also recorded: low detectable cancer cell-necrotic activity
Ac-CDacHcaSarNapHcaNapC-NH2 [HILRa CL-16-C]	0.5	26.9			cytotoxic activity against NCIH460 cells (in words) (NCI-H460 cells): completely removed the cell killing effect; also recorded: low detectable cancer cell-necrotic activity
Ac-CDacHcaSarNapHcaNapC-NH2 [HILRa-CL-16]					cytotoxic activity against NCIH460 cells (in words) (NCI-H460 cells): negligible activity
Ac-CDacHcaSarProHcaNapC-NH2 [HILRa CL-14-A]	9.9	10.5			cytotoxic activity against NCIH460 cells (in words) (NCI-H460 cells): low detectable cancer cell-necrotic activity
Ac-CDacHcaSarProHcaNapC-NH2 [HILRa CL-14-B]	6.8	5.8			cytotoxic activity against NCIH460 cells (in words) (NCI-H460 cells): low detectable cancer cell-necrotic activity
Ac-CDacHcaSarProHcaNapC-NH2 [HILRa-CL-14]					cytotoxic activity against NCIH460 cells (in words) (NCI-H460 cells): negligible activity
Ac-CPKGPKPC-NH2 [HILRa-CL-10]			0.8	2.2	
Ac-CPKGPRPC-NH2 [HILRa-CL-04]			8.5	0.0	
Ac-CPRGPKPC-NH2 [HILRa-CL-07]			1.5	0.0	
Ac-CPRGPRPC-NH2 [HILRa-CL-01, CLIPS-cyclised peptide]			12.9	0.0	% inhibition at 1 mM ([1]; 0.2 μl Nanocin-PRO per well, listed as ‘clipped’ Pro-Arg-Gly-Pro-Arg-Pro warhead): over 10%
Ac-C[Sar]PKGPKP[Sar]C-NH2 (CXPKGPKPXC; N-acetyl; C-amide; sarcosines; HILRa-CL-11 Synthesized; Sar (2)..(2) X = Sarcosine; Sar (9)..(9) X = Sarcosine)			1.2	0.0	
Ac-C[Sar]PKGPRP[Sar]C-NH2 (CXPKGPRPXC; N-acetyl; C-amide; sarcosines; HILRa-CL-05 Synthesized; Sar (2)..(2) X = Sarcosine; Sar (9)..(9) X = Sarcosine)			1.1	0.0	
Ac-C[Sar]PRGPKP[Sar]C-NH2 (CXPRGPKPXC; N-acetyl; C-amide; sarcosines; HILRa-CL-08 Synthesized; Sar (2)..(2) X = Sarcosine; Sar (9)..(9) X = Sarcosine)			3.2	0.0	
Ac-C[Sar]PRGPRP[Sar]C-NH2 (CXPRGPRPXC; N-acetyl; C-amide; sarcosines; HILRa-CL-02 Synthesized; Sar (2)..(2) X = Sarcosine; Sar (9)..(9) X = Sarcosine)			2.0	0.0	
Ac-C[Sar][Sar]PKGPKP[Sar][Sar]C-NH2 (CXXPKGPKPXXC; N-acetyl; C-amide; sarcosines; HILRa-CL-12 Synthesized; Sar (2)..(2) X = Sarcosine; Sar (3)..(3) X = Sarcosine; Sar (10)..(10) X = Sarcosine; Sar (11)..(11) X = Sarcosine)			0.8	0.0	
Ac-C[Sar][Sar]PKGPRP[Sar][Sar]C-NH2 (CXXPKGPRPXXC; N-acetyl; C-amide; sarcosines; HILRa-CL-06 Synthesized; Sar (2)..(2) X = Sarcosine; Sar (3)..(3) X = Sarcosine; Sar (10)..(10) X = Sarcosine; Sar (11)..(11) X = Sarcosine)			6.1	0.0	
